Source: US20100166933A1, “Frozen Confectionery and Beverage Products” (priority 2008, published 2010)

Columns and labels:
[1] = Human crossover study, Bond-Lader mood questionnaire: alertness (Example 4); type: in vivo; conditions: theobromine 700 mg, caffeine 120 mg, gelatine capsule; for Alertness score in Bond-Lader test, 1 hour: 1 hour after ingestion; for Alertness score in Bond-Lader test, 2 hours: 2 hours after ingestion; for Alertness score in Bond-Lader test, 3 hours: 3 hours after ingestion; for Alertness score in Bond-Lader test, Time zero: time zero (baseline), 24 healthy volunteers
Description: (§1) Volunteers consumed one of 4 treatments: theobromine only, caffeine only, theobromine and caffeine combined or placebo. […] Theobromine was pharmaceutical grade, supplied by Fagron, Netherlands. […] The placebo capsules matched in appearance and were filled with Avicel (microcrystalline cellulose). The gelatin capsules (size 1) were supplied by Blockland Medical supplies and meet European Pharmacopoeia (Ph. Eur) standards. […] Twenty-four healthy volunteers took part and arrived at the laboratory having consumed a standard lunch and having abstained from theobromine- and caffeine-containing foods such as chocolate for 12 hours. At the start of each session, participants answered a baseline set of questionnaires, which took approximately 15 minutes to complete. On completion, they were given a 10 minute break in which to consume the capsules. The questionnaire was repeated 1, 2 and 3 hours after ingestion. Blood pressure was measured at 0, 1 and 3 hours after treatment. Participants were allowed to read quietly between test batteries.

[2] = Human crossover study, systolic blood pressure (Example 4); conditions: theobromine 700 mg, caffeine 120 mg; for Change in systolic blood pressure, 1 hour: 1 hour after treatment; for Change in systolic blood pressure, 1 hour / Change in systolic blood pressure, 3 hours / Change in systolic blood pressure, Time zero: gelatine capsule; for Change in systolic blood pressure, 3 hours: 3 hours after treatment
Description: as §1

Compound	Alertness score in Bond-Lader test, 1 hour [1]	Alertness score in Bond-Lader test, 2 hours [1]	Alertness score in Bond-Lader test, 3 hours [1]	Alertness score in Bond-Lader test, Time zero [1]	Change in systolic blood pressure, 1 hour [2]	Change in systolic blood pressure, 3 hours [2]	Change in systolic blood pressure, Time zero [2] [Hgmm]	Effect on systolic blood pressure after 1 hour (in words) ([2]; after 1 hour)
Cn1cnc2c1c(=O)[nH]c(=O)n2C [Theobromine, 3,7-dimethylxanthine]	−0.06	−0.03	−0.01	0	+3 Hgmm	+4 Hgmm	0	–
Cn1c(=O)c2c(ncn2C)n(C)c1=O [Caffeine, 1,3,7-trimethylxanthine]	+0.01	+0.05	+0.07	0	+10 Hgmm	−3 Hgmm	0	rise in systolic blood pressure (significantly higher than placebo)
